Data taken from a melting point compilation (Tetko et al.; mined from patent text by program, amines drawn as free bases though some values may be those of a salt).

Row | Structure (SMILES) | melting point [°C]
1 | O=C(COc1ccc2c(-c3ccccc3F)noc2c1Cl)NO | 151
2 | O=C(O)CCN1C(=O)CSC1=S | 155 to 156
3 | N#CNc1cc(F)ccc1-c1ccccc1 | 68 to 70
4 | COc1c(C2CCN(CCCCNC(=O)c3ccc(-c4ccc(C#N)nc4)cc3)CC2)ccc2c1CCCC2 | 179 to 181
5 | CCOC(=O)NS(=O)(=O)c1cc(C(C)=O)ccc1Cl | 106
6 | CC(C)c1nc(C(C)C)c(CNC2CC2)c(-c2ccc(F)cc2)c1CO | 81 to 83
7 | COC(=O)c1cc(-c2ccc(OC)c(Cl)c2)nn(CC2CC2)c1=O | 101 to 104
8 | Cc1cc(CCCCCOc2c(Cl)cc(C3=NCCC3)cc2Cl)on1 | 57 to 59
9 | CN(Cc1ccccc1)c1nc(N2CCC(N(C)C)CC2)nc2c(N3CCOCC3)ncnc12 | 122
10 | CCOC(=O)c1c(OC(C)C)c(Br)c(Br)n1Cc1ccccc1 | 46 to 48
11 | CSc1nnc(C2CCCCC2)c(=O)n1C | 84 to 88
12 | Cc1csc2[nH]c(C(=O)c3ccccc3)cc12 | 199
13 | N#CC(C=O)c1cnccn1 (stereo not given) | 192 to 194
14 | C=C(C)COc1ccc2c(=O)c(C)c(-c3ccccc3)oc2c1C(=O)C=Cc1ccccc1 | 145 to 147
15 | COC(=O)C[C@H](O)C[C@H](O)CCc1c(-c2ccc(F)cc2)c(-c2ccccc2)c(C(=O)NCc2ccccc2)n1C(C)C | 52 to 55
16 | O=C1NC(=O)C(Cc2ccc(OCCN3C(=O)c4ccccc4C3=O)cc2)S1 (stereo not given) | 192 to 194
17 | NC(=O)c1ncn(C2OC(CO)C(O)C2O)c1C(N)=O (stereo not given) | 224 to 226
18 | CC(=C=CC(=O)O)c1ccc(Cl)cc1 | 146 to 148
19 | C=C(F)c1cc(O)cc2nc(-c3ccc(O)c(F)c3)oc12 | 213 to 214
20 | N#CCc1ccc(N)c2[nH]ncc12 | 164 to 165
21 | COC(=O)c1ccc(C(OC(C)=O)OC(C)=O)cc1 | 64 to 67
22 | CCCCCCCCCCCC(=O)Oc1ccc2[nH]c3c(C)c4ccncc4c(C)c3c2c1 | 188 to 190
23 | Clc1nc2cccccc-2n1 | 162 to 163
24 | Cc1cccc(Cc2c[nH]cn2)c1 | 127 to 130
25 | Cc1cc(C)c(Oc2cccc(C#N)c2C#N)c(C)c1 | 151 to 153
26 | COC(=O)CCNc1ccccc1CNC(=O)C1Cc2ccccc2N1S(=O)(=O)c1ccc(-c2ccc(F)cc2Cl)cc1 (stereo not given) | 70 to 73
27 | COC(=O)c1ccccc1-c1ccc(N(C)C)cn1 | 161 to 163
28 | Cc1cc(-c2nc3ccccc3c(=O)n2-c2ccc(C(F)(F)F)cc2)cc(C)c1OCCO | 160 to 161

Row | Structure (SMILES) | melting point [°C]
29 | CCNc1c(C(=O)OCC)c(C)nc2scnc12 | 53 to 54
30 | COC(=S)c1nc(Br)nc(C)c1Cl | 105 to 106
31 | COC(=O)c1ccc(Nc2ccc([N+](=O)[O-])cc2C(=O)OC)cc1 | 205 to 206
32 | COc1ccc(S(=O)(=O)Nc2ccc(F)cc2Nc2ccccc2)cc1 | 173 to 174
33 | CC(=O)OC1CSC(Oc2cnccc2C#N)C(OC(C)=O)C1OC(C)=O (stereo not given) | 167
34 | OC(CCl)(Cc1ccc(Cl)cc1)c1ccc2c(c1)Cc1cc(Cl)ccc1-2 (stereo not given) | 108
35 | O=C(CN1CCN(c2ccccc2)CC1)c1ccccc1 | 104 to 106
36 | C=C(C)COC(=O)N1CCN(c2c(C(=O)N3CCN(C)CC3)c3ccccc3n2-c2ccccc2)CC1 | 141 to 143
37 | O=C1CC(CP(=O)(c2ccccc2)c2ccccc2)O1 (stereo not given) | 154 to 155
38 | COc1cc2c(cc1OC)C(NC=O)C(c1ccc3c(c1)OCO3)CC2 (stereo not given) | 150 to 190
39 | c1cc(Cc2cc3ccccc3[nH]2)cc(-c2cc3ccccc3[nH]2)c1 | 193 to 194
40 | CC1CC2C3CCC4=CC(=O)CCC4=C3C(c3ccc(-c4cccnc4)cc3)CC2(C)C1C(=O)C1CC1 (stereo not given) | 206
41 | NC(=O)c1ccc(CCCOCCCCCCBr)cc1 | 79 to 82
42 | O=C(Nc1ccc(CCl)cc1)C1=Cc2cc(-c3ccccc3)ccc2CC1 | 176 to 177
43 | CC1(C)[C@@H](NCC(=O)N2C[C@@H](F)C[C@H]2C#N)CC[C@@]1(C)c1nc(-c2ccc(F)cc2)no1 | 127 to 131
44 | CC1CC(=O)c2c(C(=O)Nc3cccnc3)c[nH]c2C1 (stereo not given) | 225 to 227
45 | CCCCCOc1cccc(N)c1C#N | 70 to 73
46 | CCOC(=O)C(O)=CC=C(SC)C(=O)c1ccc(O)c(O)c1 | 156
47 | CC(C)(C)c1ccc(C(=O)Nc2cn3cc(-n4cncn4)ccc3n2)cc1 | 274 to 276
48 | COCCn1nc2c3c(c(NCCNCCO)ccc31)C(=O)c1c(O)ccc(O)c1-2 | 174 to 178
49 | CCCCCCCN1CCN(C(=O)C2CCC(c3cccnc3)N2)CC1 (stereo not given) | 138 to 143
50 | CC(=O)Oc1cc(/C=C/c2ccccc2)cc(OC(C)=O)c1 | 90 to 90.5
51 | COc1cccc(Nc2cnc3c(NCc4ccccc4)nc(NCCO)nc3c2)c1 | 110 to 111
52 | COCC1C(=O)C(C)(C)C(=O)N1c1ccc(C#N)c(Cl)c1 (stereo not given) | 98 to 99
53 | COc1ccc2c(c1)c(Cc1cc(=O)n(-c3cccc(F)c3)[nH]1)c(C)n2C(=O)c1ccc(Cl)cc1 | 162 to 164
54 | O=Nc1c(-c2ccc(Cl)cc2)nc2sc3ccccc3n12 | 203 to 206
55 | CN(C)c1ccc2c(c1)NC(=O)CC2 | 154 to 156

Further lines, results first:

Row | melting point [°C] | Structure (SMILES)
56 | 130 to 131 | Cc1cc(Cc2cc(C)c(N=C=O)c(C)c2)cc(C)c1N=C=O
57 | 169 to 170 | COc1ccc(CN2C(=O)C3(COc4cc5c(cc43)CCO5)c3c2ccc2ncccc32)cc1 (stereo not given)
58 | 139 to 142 | CCOc1cccc(-c2cc(F)c(NC(=O)c3ccccc3CO)c(Cl)c2)c1
59 | 103 to 104 | CCCN1C(=O)c2ccccc2Sc2ccccc21
60 | 183 to 185 | O=C(O)c1[nH]c2ccc(Cl)cc2c1S(=O)c1ccccc1 (stereo not given)
61 | 151 to 154 | CCn1c2ccc(C(=O)c3ccc(-n4c5ccccc5c5ccccc54)cc3)cc2c2cc(C(C)=NO)ccc21
62 | > 300 | CCOC(=O)Nc1c(Cl)cc2nc(O)c(O)nc2c1[N+](=O)[O-]
63 | 153 to 154 | O=C(CCc1nc(CCl)no1)c1ccc(-c2ccccc2)cc1
64 | 130 to 139 | COc1ccc(N2CCC(=O)N(c3ccc(F)cc3)CC2)c(-c2ccc(N(C)C)cc2)n1
65 | 163 to 166 | CCOC(=O)N[C@@H](C(=O)N1CCC[C@H]1C(=O)O)c1ccccc1
66 | 70 to 72 | CC(=O)c1ccc(-c2ccc(F)cc2Br)cc1
67 | 167 to 169 | Cn1cc(S(C)=O)c(=O)c2sc(-c3ccccc3Cl)cc21 (stereo not given)
68 | 224 to 226 | CCCc1c(C(C)=O)ccc(OCc2nc3nccnc3c(=O)[nH]2)c1O
69 | 224 to 226 | CCc1noc(-c2cn(-c3ccc(Cl)cn3)cn2)n1
70 | 207 to 210 | CN1C(=O)NC(Cc2c[nH]c3ccccc23)C1=O (stereo not given)
71 | 165 to 166 | N#CC1=C(COCc2ccccc2)Nc2n[nH]cc2C1c1ccccc1Cl (stereo not given)
72 | 196 to 198 | COc1cc(-c2ccccc2Cl)c(Cl)cc1C(=O)N1Cc2ccc(C(=O)N(C)Cc3cccnc3)n2Cc2ccccc21
73 | > 310 | O=C(O)c1ccc2c([N+](=O)[O-])c(O)c(O)cc2c1
74 | 206 to 207 | O=C(Nc1cc(OCCCON=Cc2ccc(-c3ccccc3)cc2)ccc1C(=O)O)c1ccc(C(F)(F)F)cc1
75 | 160 to 161 | COCCc1cc(N2CCN(C)CC2)n2nc(SC)c(S(=O)(=O)c3ccccc3)c2n1
76 | 122 to 123 | NCCOc1cccc2c1c1cccc(F)c1n2Cc1ccccc1
77 | 324 | O=C(Oc1ccc2cc3cc(OC(=O)c4ccc(O)cc4)ccc3cc2c1)c1ccc(O)cc1
78 | 193 to 196 | N#Cc1cnc2c(cc([N+](=O)[O-])c3nncc32)c(-c2ccccc2Cl)n1

Row | melting point [°C] | Structure (SMILES)
79 | 111 | CC(=O)NCCSc1c(Cl)cc(N)c(C)c1N
80 | 152 to 156 | COc1ccc(NC(C)c2oc3ccc(F)cc3c(=O)c2-c2cccc(F)c2)cc1 (stereo not given)
81 | 83 to 85 | C=CC(O)c1c(C(C)C)nc(C(C)C)c(CCCCC)c1-c1ccc(F)cc1 (stereo not given)
82 | 130 | O=C(O)CSC(F)(F)F
83 | 102 | Nc1ncc(-c2ccccc2COC2CCCCC2)s1
84 | 123 to 124 | COc1ccc(Cn2c(=O)c3ccccc3n(CCCCCl)c2=O)cc1
85 | 204 to 206 | O=C1Nc2cc(C(F)(F)F)ccc2N2CCN(CCc3ccncc3)CC12 (stereo not given)
86 | 192 to 195 | NS(=O)(=O)c1cc2c3c(ccc2cc1[N+](=O)[O-])N(C(=O)C(F)(F)F)CC3CCl (stereo not given)
87 | 250 to 251 | CN1C(=O)C(C)(C)C(=O)Nc2ccc(C#N)cc21
88 | 152 | Cc1cccc(NC(=O)NCC(=O)N(CC(=O)OC(C)(C)C)c2ccc([N+](=O)[O-])cc2)c1
89 | 160 to 163 | O=C(Nc1ccc(C(CC2CCCC2)C(=O)Nc2ccccn2)cc1)c1cccnc1 (stereo not given)
90 | 250 | CC(C)(C)c1cc(C(=O)O)c(Cl)c(C(=O)O)c1
91 | 232 to 233 | Oc1[nH]nc2c1-c1ccc(Cl)cc1CC2
92 | 280 to 281 | Cc1ccc(N2C(=O)C(O)=C(C(=O)c3ccc(C(C)C)cc3)C2c2ccc(OC(C)C)cc2)nn1 (stereo not given)
93 | 100 to 102 | COCCOc1cc(N(C)S(=O)(=O)c2ccccn2)c2[nH]c(C3=NCC(CC(N)=O)S3)cc2c1 (stereo not given)
94 | 171 | CC(=O)c1ccc(NC(=O)c2ccc(C3OCC(SC(C)C(O)(Cn4cncn4)c4ccc(F)cc4F)CO3)cc2)cc1 (stereo not given)
95 | 124 to 126 | CCCc1nc(C(=O)OC)c(C(=O)OC)n1Cc1ccc(-c2ccccc2-c2nnn[nH]2)cc1
96 | 10 | CC1(C)CCC(C)(C)c2cc(C(O)CCC(=O)O)ccc21 (stereo not given)
97 | 205 to 206 | CN(C=C(S(=O)(=O)c1ccccc1)S(=O)(=O)c1ccccc1)c1ccc(Cl)cn1
98 | 190 | O=C(Nc1ccc(S(=O)(=O)Oc2ccccc2)cc1[N+](=O)[O-])NS(=O)(=O)Cl
99 | 160 to 161 | Cc1ccccc1NC(=N)NC12CC3CC(CC(C3)C1)C2
100 | 65 to 67 | O=C(NCC(S)CO)OCc1ccc([N+](=O)[O-])cc1 (stereo not given)
